Key:
[1] = test system: TEAD response element (TRE) luciferase reporter in MCF-7 cell lines; test: TEAD response element (TRE) reporter assay; type: cell-based; conditions: Homo sapiens, MCF7; 0.2 μM compound, 24 hours, MCF-7 TEAD reporter cells, relative to vehicle (1% DMSO)
Procedure: MCF-7 cell lines injected with TEAD reporter genes expressing firefly luciferase upon activation of TEAD response element (TRE) were obtained from BPS bioscience (#60618). The TEAD reporter genes were injected to stable expression in the MCF-7 cell lines.
TEAD reporter genes expressing firefly luciferase upon activation of TEAD response element (TRE) were injected with TEAD reporter genes to ensure stable expression of the TEAD reporter genes. Here, the TEAD reporter genes expresses firefly luciferase upon activation of TEAD response element (TRE). The cells were cultured in a cell-only culture medium (BPS bioscience) to which 10 μg/mL insulin (Sigma) was added at 37° C. and 5% CO2.
In 24 hours after dispensing said cells into a 96-well plate, each of the compounds of the examples or a vehicle solvent (final 1% DMSO) was treated by being diluted with a serum-free culture medium so that the final concentration became 0.2 μM. In 24 hours after said treatment, a luciferase assay working solution (ONE-Step Luciferase assay reagent; BPS bioscience) containing a luciferase substrate was treated in each well at 100 μL, and then left in a shaker for 15 minutes to be well mixed. Then, a degree of luminescence generated by luciferase expressed according to TEAD activation was measured by a microplate reader (TECAN). A relative activity of luciferase […], and the results are shown in table 8 below.

[2] = target: T1, recombinant GST-TEAD1 proteins (209 to 426 a.a.) (Homo sapiens, UniProt P28347); test: Evaluation of palmitoylation of TEAD protein; type: biochemical; conditions: 5 μM compound, 15 minutes preincubation, 3 μM alkyne palmitoyl-CoA 30 minutes, pH 6.4, vs DMSO control
T1 construct: recombinant GST-TEAD1 proteins (209 to 426 a.a.)
T1 sequence (P28347 209-426): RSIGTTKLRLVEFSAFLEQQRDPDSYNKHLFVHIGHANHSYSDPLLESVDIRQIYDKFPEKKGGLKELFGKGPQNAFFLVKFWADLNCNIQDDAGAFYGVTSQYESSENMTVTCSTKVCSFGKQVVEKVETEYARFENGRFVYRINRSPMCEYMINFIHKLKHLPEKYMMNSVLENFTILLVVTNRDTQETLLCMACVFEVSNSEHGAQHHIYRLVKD
Procedure: Each compound corresponding to a concentration of 5 μM was added to recombinant GST-TEAD1 proteins (209 to 426 a.a.) and cultured for 15 minutes. For an autopalmitoylation reaction of proteins after culturing, 3 μM alkyne palmitoyl-CoA (Cayman chemical) and 50 mM MES buffer (pH 6.4) were added and cultured for 30 minutes, after which 1% of sodium dodecyl sulfate (SDS) was added to stop the reaction. After that, biotinylation was performed through a CLICK (Click chemistry tools) reaction, and then a protein solution was concentrated to prepare a sample.
Analysis of the sample was performed using SDS-PAGE and streptavidin HRP (Thermo scientific). The resulting values were quantified using an Image J (NIH). For the intensity of the band obtained from Streptavidin blot, a palmitoylation inhibitory activity was analyzed based on the control group (DMSO). The normalization of each sample was performed using an anti-GST (91G1) (cell signaling) antibody.

inhibition at 5 µM [2] | SMILES | inhibition at 0.2 µM [1]
< 40% | CC=CC(=O)Nc1cnc2c(c1)c(C)cn2CCCC [Compound 23, N-(1-butyl-3-methyl-1H-pyrrolo[2,3-b]pyridin-5-yl)but-2-enamide] | < 30%
> 80% | C=CC(=O)Nc1cnc2c(c1)c(C)cn2C(=O)c1ccc(C(F)(F)F)cc1 [Compound 24, N-(3-methyl-1-(4-(trifluoromethyl)benzoyl)-1H-pyrrolo[2,3-b]pyridin-5-yl)acrylamide] | < 30%
40 to 80% | Cc1cn(Cc2ccc(C(F)(F)F)cc2)c2ncc(NC(=O)C(C)C)cc12 [Compound 25, N-(3-methyl-1-(4-(trifluoromethyl)benzyl)-1H-pyrrolo[2,3-b]pyridin-5-yl)isobutyramide] | < 30%
> 80% | C=CC(=O)Nc1cnc2c(c1)c(C)cn2CCC(C)C [Compound 26, N-(1-isopentyl-3-methyl-1H-pyrrolo[2,3-b]pyridin-5-yl)acrylamide] | 30 to 50%
> 80% | C=CC(=O)Nc1cnc2c(n1)c(C)cn2Cc1ccc(C(F)(F)F)cc1 [Compound 28, N-(7-methyl-5-(4-(trifluoromethyl)benzyl)-5H-pyrrolo[2,3-b]pyrazin-2-yl)acrylamide] | > 50%
40 to 80% | C=CC(=O)Nc1cc2ccn(Cc3ccc(C(F)(F)F)cc3)c2cn1 [Compound 29, N-(1-(4-(trifluoromethyl)benzyl)-1H-pyrrolo[2,3-c]pyridin-5-yl)acrylamide] | < 30%
40 to 80% | C=CC(=O)Nc1cnc2ncn(Cc3ccc(C(F)(F)F)cc3)c2c1 [Compound 30, N-(1-(4-(trifluoromethyl)benzyl)-1H-imidazo[4,5-b]pyridin-6-yl)acrylamide] | < 30%
40 to 80% | C=CC(=O)Nc1cnc2c(n1)c(C)nn2Cc1ccc(C(F)(F)F)cc1 [Compound 31, N-(3-methyl-1-(4-(trifluoromethyl)benzyl)-1H-pyrazolo[3,4-b]pyrazin-5-yl)acrylamide] | > 50%
40 to 80% | C=CC(=O)Nc1ccc2c(C)nn(Cc3ccc(C(F)(F)F)cc3)c2c1 [Compound 32, N-(3-methyl-1-(4-(trifluoromethyl)benzyl)-1H-indazol-6-yl)acrylamide] | > 50%
40 to 80% | C=CC(=O)Nc1ccc2c(c1)c(C)nn2Cc1ccc(C(F)(F)F)cc1 [Compound 33, N-(3-methyl-1-(4-(trifluoromethyl)benzyl)-1H-indazol-5-yl)acrylamide] | > 50%
40 to 80% | C=CC(=O)Nc1ccc2cnn(-c3ccc(C(F)(F)F)cc3)c2c1 [Compound 34, N-(1-(4-(trifluoromethyl)phenyl)-1H-indazol-6-yl)acrylamide] | 30 to 50%
40 to 80% | C=CC(=O)Nc1cnc2c(cnn2-c2ccc(C(F)(F)F)cc2)c1 [Compound 35, N-(1-(4-(trifluoromethyl)phenyl)-1H-pyrazolo[3,4-b]pyridin-5-yl)acrylamide] | > 50%

The remaining lines, values behind:

SMILES | inhibition at 5 µM [2] | inhibition at 0.2 µM [1]
C=CS(=O)(=O)Nc1cnc2ncn(-c3ccc(C4CCCCC4)cc3)c2c1 [Compound 1, N-(1-(4-cyclohexylphenyl)-1H-imidazo[4,5-b]pyridin-6-yl)ethenesulfonamide] | – | < 30%
C=CC(=O)Nc1cnc2ncn(-c3ccc(C4CCCCC4)cc3)c2c1 [Compound 2, N-(1-(4-cyclohexylphenyl)-1H-imidazo[4,5-b]pyridin-6-yl)acrylamide] | – | < 30%
C=CC(=O)Nc1cnc2c(ccn2Cc2ccc(C(F)(F)F)cc2)c1 [Compound 4, N-(1-(4-(trifluoromethyl)benzyl)-1H-pyrrolo[2,3-b]pyridin-5-yl)acrylamide] | 40 to 80% | 30 to 50%
C=CC(=O)Nc1ccc2c(cnn2Cc2ccc(C(F)(F)F)cc2)c1 [Compound 6, N-(1-(4-(trifluoromethyl)benzyl)-1H-indazol-5-yl)acrylamide] | > 80% | 30 to 50%
C=CC(=O)Nc1ccc2c(c1)CCN2Cc1ccc(C(F)(F)F)cc1 [Compound 7, N-(1-(4-(trifluoromethyl)benzyl)indolin-5-yl)acrylamide] | > 80% | > 50%
C=CC(=O)Nc1cnc2c(cnn2CC2CCCC2)c1 [Compound 8, N-(1-(cyclopentylmethyl)-1H-pyrazolo[3,4-b]pyridin-5-yl)acrylamide] | 40 to 80% | 30 to 50%
C=CC(=O)Nc1cnc2c(c1)c(C)cn2CC1CCCC1 [Compound 9, N-(1-(cyclopentylmethyl)-3-methyl-1H-pyrrolo[2,3-b]pyridin-5-yl)acrylamide] | > 80% | > 50%
C=CC(=O)Nc1cnc2c(c1)c(C)cn2CC1CCC(F)(F)CC1 [Compound 10, N-(1-((4,4-difluorocyclohexyl)methyl)-3-methyl-1H-pyrrolo[2,3-b]pyridin-5-yl)acrylamide] | > 80% | > 50%
C=CC(=O)Nc1cnc2c(cnn2CC2CCC(F)(F)CC2)c1 [Compound 11, N-(1-((4,4-difluorocyclohexyl)methyl)-1H-pyrazolo[3,4-b]pyridin-5-yl)acrylamide] | 40 to 80% | 30 to 50%
C=CC(=O)Nc1cnc2c(cnn2CCCOC(F)(F)F)c1 [Compound 12, N-(1-(3-(trifluoromethoxy)propyl)-1H-pyrazolo[3,4-b]pyridin-5-yl)acrylamide] | < 40% | < 30%
C=CC(=O)Nc1cnc2c(c1)c(C)nn2Cc1ccc(C(F)(F)F)cc1 [Compound 13, N-(3-methyl-1-(4-(trifluoromethyl)benzyl)-1H-pyrazolo[3,4-b]pyridin-5-yl)acrylamide] | > 80% | 30 to 50%
C=CC(=O)Nc1cnc2c(c1)c(C)nn2CC1CCC(F)(F)CC1 [Compound 14, N-(1-((4,4-difluorocyclohexyl)methyl)-3-methyl-1H-pyrazolo[3,4-b]pyridin-5-yl)acrylamide] | 40 to 80% | > 50%
C=CC(=O)Nc1cnc2c(ccn2Cc2ccc(C(F)(F)F)cc2)n1 [Compound 15, N-(5-(4-(trifluoromethyl)benzyl)-5H-pyrrolo[2,3-b]pyrazin-2-yl)acrylamide] | > 80% | > 50%
C=CC(=O)Nc1cnc2c(cnn2Cc2ccc(C(F)(F)F)cc2)n1 [Compound 16, N-(1-(4-(trifluoromethyl)benzyl)-1H-pyrazolo[3,4-b]pyrazin-5-yl)acrylamide] | < 40% | > 50%
C=CC(=O)Nc1ccc2cnn(Cc3ccc(C(F)(F)F)cc3)c2c1 [Compound 17, N-(1-(4-(trifluoromethyl)benzyl)-1H-indazol-6-yl)acrylamide] | 40 to 80% | 30 to 50%
C=CC(=O)Nc1cnc2c(ccn2Cc2ccc(C(F)(F)F)cc2)c1OC [Compound 18, N-(4-methoxy-1-(4-(trifluoromethyl)benzyl)-1H-pyrrolo[2,3-b]pyridin-5-yl)acrylamide] | > 80% | 30 to 50%
C=CC(=O)Nc1ncc2cnn(Cc3ccc(C(F)(F)F)cc3)c2n1 [Compound 19, N-(1-(4-(trifluoromethyl)benzyl)-1H-pyrazolo[3,4-d]pyrimidin-6-yl)acrylamide] | < 40% | < 30%
C=CC(=O)Nc1ncc2c(C)nn(Cc3ccc(C(F)(F)F)cc3)c2n1 [Compound 20, N-(3-methyl-1-(4-(trifluoromethyl)benzyl)-1H-pyrazolo[3,4-d]pyrimidin-6-yl)acrylamide] | < 40% | < 30%
CC=CC(=O)Nc1cnc2c(c1)c(C)cn2Cc1ccc(C(F)(F)F)cc1 [Compound 21, N-(3-methyl-1-(4-(trifluoromethyl)benzyl)-1H-pyrrolo[2,3-b]pyridin-5-yl)but-2-enamide] | < 40% | < 30%
C=CC(=O)Nc1ncc2c(cnn2Cc2ccc(C(F)(F)F)cc2)n1 [Compound 22, N-(1-(4-(trifluoromethyl)benzyl)-1H-pyrazolo[4,3-d]pyrimidin-5-yl)acrylamide] | < 40% | < 30%
